Experimental data from publication PMC5069162 (Anesthesiology, 2016).
Where “and” joins values, the source holds several entries; their conditions need not be identical. Identical values can stand only once. Like-named read-outs stand apart in the source and are kept apart here.

Legend:
11β-hydroxylase [1] = conditions: estimated by Zolle et al.; cited from earlier work
11β-hydroxylase [2] = target: T1, 11β-hydroxylase (Rattus norvegicus, UniProt P15393); type: binding; conditions: for Hill coefficient for inhibition of specific 3H-etomidate binding / IC50: 2 nM 3H-etomidate; for Hill coefficient for inhibition of specific 3H-etomidate binding: equation 2; for IC50 higher than that of etomidate: ratio of IC50s for 3H-etomidate binding; for IC50: 0.07 mg/ml protein
T1 sequence (P15393 25-499): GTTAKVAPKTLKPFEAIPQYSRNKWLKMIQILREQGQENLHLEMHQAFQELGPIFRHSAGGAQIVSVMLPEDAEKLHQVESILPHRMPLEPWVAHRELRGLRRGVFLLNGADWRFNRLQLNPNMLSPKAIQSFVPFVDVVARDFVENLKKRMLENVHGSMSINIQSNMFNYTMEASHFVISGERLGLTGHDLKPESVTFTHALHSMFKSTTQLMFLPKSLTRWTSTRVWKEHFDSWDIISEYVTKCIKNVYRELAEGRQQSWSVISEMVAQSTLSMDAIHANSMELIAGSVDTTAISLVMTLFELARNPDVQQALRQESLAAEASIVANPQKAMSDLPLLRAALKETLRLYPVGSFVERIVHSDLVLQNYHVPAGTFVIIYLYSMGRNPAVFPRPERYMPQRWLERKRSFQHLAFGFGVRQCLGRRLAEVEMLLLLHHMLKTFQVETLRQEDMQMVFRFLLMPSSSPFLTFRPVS

[3] = tested on: H295R adrenocortical cells; conditions: cited from earlier work
rat adrenocortical cells = conditions: read-out: IC50 for inhibiting corticosterone synthesis; cited from earlier work
11β-hydroxylase [4] = target: T1, 11β-hydroxylase; type: binding
rats = conditions: in rats; cited from earlier work
[5] = after 2-hr infusion of parent drug in dogs; cited from earlier work
[6] = read-out: half-inhibitory concentration (IC50) for specific 3H-etomidate binding
[7] = half-inhibitory concentration (IC50) for specific 3H-etomidate binding

Compound	Hill coefficient for inhibition of specific 3H-etomidate binding (11β-hydroxylase [2])	IC50 (11β-hydroxylase [2]; [6])	IC50 (11β-hydroxylase [2]; [7])	further results
COC(=O)c1cncn1C(C)c1ccc(I)cc1 (centres unmarked)				Kd (11β-hydroxylase [1]): 0.0116 ± 0.0025 µM
CCOC(=O)c1cccn1[C@H](C)c1ccccc1 [carboetomidate]	−0.27	≥ 50 µM and 50 µM		IC50 higher than that of etomidate (11β-hydroxylase [2]): 1900 fold; IC50 for suppressing in vitro cortisol synthesis higher than etomidate ([3]; H295R adrenocortical cells): 2000 fold; potency at inhibiting cortisol synthesis relative to etomidate ([3]; adrenocortical cell line): three orders of magnitude less potent than etomidate
Cc1cccc([C@H](C)c2cnc[nH]2)c1C [dexmedetomidine, reference compound]	−0.33		2.2 µM	IC50 (rat adrenocortical cells): 1 µM
CCOC(=O)c1cncn1[C@H](C)c1ccccc1 [etomidate, reference compound]	−0.82			Kd (11β-hydroxylase [4]): 0.021 µM; maximum concentration of binding sites (Bmax), homologous competition (11β-hydroxylase [4]; 2 nM 3H-etomidate vs cold etomidate, equation 1): 11,700 CPM; hypnotic potency (rats): 0.53 ± 0.17 mg/kg
C[C@H](c1ccccc1)n1cncc1C(=O)O [etomidate-CA]	−0.32	1100 µM		maximal metabolite concentration [5]: 1680 ng/ml and 7.8 μM
CNC1(c2ccccc2Cl)CCCCC1=O (centres unmarked) [ketamine, reference compound]	−0.23		≥ 50 µM and 79 µM	
CC(C)c1cccc(C(C)C)c1O [propofol, reference compound]			> 100 µM	
cyclopropyl methoxycarbonyl metomidate [CPMM]	−0.55	0.143 µM		IC50 higher than that of etomidate (11β-hydroxylase [2]): 5.5 fold; hypnotic potency (rats): 0.69 ± 0.04 mg/kg
